# In patent publication US20050208124A1, “Drugs containing riboflavin-type compounds” (priority 2003, published 2005):
# Where two headings read alike, the source gives them in different places.
# Assays:
# SEB-induced shock mice = conditions: mouse, in vivo
# [1] = system: TNF-α-stimulated mouse peritoneal macrophage; test: IL-6 production from TNF-α-stimulated mouse peritoneal macrophage; assay type: cell-based; conditions: 10 ng/mL TNF-α, 24 h
# [2] = system: human vascular endothelial cells (HUEC); test: Active oxygen production in endothelial cells under high glucose load; assay type: cell-based; conditions: 30 mM glucose load, control 91.2, glucose alone 140.5
# Description: Next, glucose was added to a glucose concentration of 30 mM on each plate, and the cells were CO2 incubated for 1 hour at 37° C. After completion of culture the cells were collected and intracellular active oxygen was measured by FACS Calibur (Flow Cytometry System; Becton Dickinson Japan) using […] (intracellular active oxygen measurement kit; […] Pharma).
# HWEC cells = test: IL-8 production in endothelial cells under high glucose load; assay type: cell-based, human; conditions: 30 mM glucose load, 2 h, glucose alone 1196 pg/mL
# LPS-induced shock mice = conditions: male ICR mice, LPS 12 mg/kg i.v., 20 mg/kg i.v. 6 h after LPS
# AAPH-intoxication mice = test: AAPH-intoxication mouse model: survival; conditions: male ICR mice, AAPH 125 mg/kg i.p., 7 days
# TNF-α-induced shock mice = test: TNF-α-induced shock mouse model: survival; conditions: human TNF-α + D-galactosamine i.p., 20 mg/kg i.v. immediately after, 7 days
smiles,measurement,setting,value
"Cc1cc2nc3c(=O)[nH]c(=O)nc-3n(C[C@H](O)[C@H](O)[C@H](O)COP(=O)([O-])O)c2cc1C.[Na+] [5′-FMN-Na, riboflavin-5′-phosphate sodium ester]",plasma IL-6 concentration,SEB-induced shock mice,suppression effect
same,plasma INF-γ concentration,SEB-induced shock mice,suppression effect
same,plasma MIP-2 concentration,SEB-induced shock mice,suppression effect
same,TNF-α-induced IL-6 production,[1]; 1.56 μg/mL 5′-FMN-Na,suppressed
same,TNF-α-induced IL-6 production,[1]; 25 μg/mL 5′-FMN-Na,suppressed
same,"fluorescent strength (mean fluorescence), intracellular active oxygen",[2]; 0.1 μg/mL,114.2
same,"fluorescent strength (mean fluorescence), intracellular active oxygen",[2]; 0.39 μg/mL,125.0
same,"fluorescent strength (mean fluorescence), intracellular active oxygen",[2]; 1.56 μg/mL,111.9
same,"fluorescent strength (mean fluorescence), intracellular active oxygen",[2]; 6.25 μg/mL,89.5
same,IL-8 concentration in the medium,HWEC cells; 6.25 μg/mL,297 pg/mL
same,IL-8 concentration in the medium,HWEC cells; 25 μg/mL,168 pg/mL
same,plasma GM-CSF concentration,LPS-induced shock mice; 21 h after LPS (second peak),tended to depress
same,plasma MIP-2 concentration,"LPS-induced shock mice; after 9 h, maintained after 21 h",had declined
same,plasma IL-1β concentration,"LPS-induced shock mice; between 9 and 12 h after LPS, vs control",decreased rapidly
same,plasma NO level (total NO2 and NO3),LPS-induced shock mice; between 9 and 18 h,no suppression effect
same,plasma INF-γ concentration,"LPS-induced shock mice; between 9 and 18 h after LPS, vs control",declined rapidly
same,plasma NO level (total NO2 and NO3),LPS-induced shock mice; between 21 and 24 h,had a suppression effect
same,plasma IL-6 concentration,"LPS-induced shock mice; maintained after 21 h, vs control",rapid decline
same,plasma MCP-1 concentration,LPS-induced shock mice; maintained until 21 h after LPS,depressed
same,plasma IL-10 concentration,LPS-induced shock mice; second peak (21 h after LPS),depressed
same,plasma TNF-α concentration,LPS-induced shock mice; second peak (21 h after LPS),depressed
same,Survival number,"AAPH-intoxication mice; 20 mg/kg i.p. (−24 h, 0)",7/10
same,Survival rate (%),"AAPH-intoxication mice; 20 mg/kg i.p. (−24 h, 0), P < 0.05 vs. Saline",70%
same,Survival number,"AAPH-intoxication mice; 20 mg/kg i.v. (−24 h, 0, +1 h)",6/10
same,Survival rate (%),"AAPH-intoxication mice; 20 mg/kg i.v. (−24 h, 0, +1 h)",60%
same,Survival number,TNF-α-induced shock mice; female ICR mice,7/10
same,Survival rate (%),TNF-α-induced shock mice; female ICR mice,70%
same,Survival number,TNF-α-induced shock mice; male BALB/c mice,6/10
same,Survival rate (%),"TNF-α-induced shock mice; male BALB/c mice, P < 0.05 vs. Saline, 20 mg/kg",60%
